Experiments:
Assay in all cases: relative viability (nuclei count vs DMSO), 5 days (fraction); higher = more cells survive
NCI-H460 = system: NCI-H460
In short: (§1)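 Medians of duplicate plates are given as relative viability. That measure is the nuclei count in treated wells divided by the count in vehicle wells. Counts were taken on 4× images of lung cancer cell lines in 1536-well plates, 5 days after pin-tool dosing the day after seeding with one drug alone or a fixed anchor-drug dose plus five library-drug doses (not always all listed) in √10 steps.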

SK-LU-1 = system: SK-LU-1
In short: as §1

COR-L 105 = system: COR-L 105
In short: as §1

EMC-BAC-2 = system: EMC-BAC-2
In short: as §1

HARA = system: HARA
In short: as §1

NCI-H1437 = system: NCI-H1437
In short: as §1

LCLC-103H = system: LCLC-103H
In short: as §1

HOP-62 = system: HOP-62
In short: as §1

HCC-366 = system: HCC-366
In short: as §1

NCI-H2228 = system: NCI-H2228
In short: as §1

NCI-H1915 = system: NCI-H1915
In short: as §1

NCI-H727 = system: NCI-H727
In short: as §1

HCC-827 = system: HCC-827
In short: as §1

NCI-H1792 = system: NCI-H1792
In short: as §1

A-427 = system: A-427
In short: as §1

CAL-12T = system: CAL-12T
In short: as §1

NCI-H1755 = system: NCI-H1755
In short: as §1

SW 1573 = system: SW 1573
In short: as §1

NCI-H2009 = system: NCI-H2009
In short: as §1

NCI-H23 = system: NCI-H23
In short: as §1

## CC(=O)O[C@@]12CO[C@@H]1C[C@H](O)[C@@]1(C)C(=O)[C@H](O)C3=C(C)[C@@H](OC(=O)[C@H](O)[C@@H](NC(=O)OC(C)(C)C)c4ccccc4)C[C@@](O)([C@@H](OC(=O)c4ccccc4)[C@H]21)C3(C)C [Docetaxel] + CC(C)C[C@H](NC(=O)[C@H](Cc1ccccc1)NC(=O)c1cnccn1)B(O)O [Bortezomib] (partner 0.002 µM)
NCI-H460; first compound 0.0002 µM
  relative viability: 0.959
NCI-H460; first compound 0.000632 µM
  relative viability: 0.735
NCI-H460; first compound 0.002 µM
  relative viability: 0.0916
NCI-H460; first compound 0.006325 µM
  relative viability: 0.0162
NCI-H460; first compound 0.02 µM
  relative viability: 0.0121
SK-LU-1; first compound 0.0002 µM
  relative viability: 0.951
SK-LU-1; first compound 0.000632 µM
  relative viability: 0.392
SK-LU-1; first compound 0.002 µM
  relative viability: 0.307
SK-LU-1; first compound 0.006325 µM
  relative viability: 0.267
SK-LU-1; first compound 0.02 µM
  relative viability: 0.208
COR-L 105; first compound 0.0002 µM
  relative viability: 0.734
COR-L 105; first compound 0.000632 µM
  relative viability: 0.595
COR-L 105; first compound 0.002 µM
  relative viability: 0.423
COR-L 105; first compound 0.006325 µM
  relative viability: 0.304
COR-L 105; first compound 0.02 µM
  relative viability: 0.229
EMC-BAC-2; first compound 0.0002 µM
  relative viability: 0.963
EMC-BAC-2; first compound 0.000632 µM
  relative viability: 0.875
EMC-BAC-2; first compound 0.002 µM
  relative viability: 0.573
EMC-BAC-2; first compound 0.006325 µM
  relative viability: 0.306
EMC-BAC-2; first compound 0.02 µM
  relative viability: 0.206
HARA; first compound 0.0002 µM
  relative viability: 1.04
HARA; first compound 0.000632 µM
  relative viability: 0.372
HARA; first compound 0.002 µM
  relative viability: 0.376
HARA; first compound 0.006325 µM
  relative viability: 0.118
HARA; first compound 0.02 µM
  relative viability: 0.0895
NCI-H1437; first compound 0.0002 µM
  relative viability: 0.472
NCI-H1437; first compound 0.000632 µM
  relative viability: 0.322
NCI-H1437; first compound 0.002 µM
  relative viability: 0.215
NCI-H1437; first compound 0.006325 µM
  relative viability: 0.145
NCI-H1437; first compound 0.02 µM
  relative viability: 0.104
LCLC-103H; first compound 0.0002 µM
  relative viability: 1.15
LCLC-103H; first compound 0.000632 µM
  relative viability: 1.12
LCLC-103H; first compound 0.002 µM
  relative viability: 0.714
LCLC-103H; first compound 0.006325 µM
  relative viability: 0.589
LCLC-103H; first compound 0.02 µM
  relative viability: 0.402
HOP-62; first compound 0.0002 µM
  relative viability: 0.726
HOP-62; first compound 0.000632 µM
  relative viability: 0.828
HOP-62; first compound 0.02 µM
  relative viability: 0.128
HCC-366; first compound 0.0002 µM
  relative viability: 1.07
HCC-366; first compound 0.000632 µM
  relative viability: 0.267
HCC-366; first compound 0.002 µM
  relative viability: 0.144
HCC-366; first compound 0.006325 µM
  relative viability: 0.0171
NCI-H2228; first compound 0.0002 µM
  relative viability: 0.617
NCI-H2228; first compound 0.000632 µM
  relative viability: 0.212
NCI-H2228; first compound 0.002 µM
  relative viability: 0.149
NCI-H2228; first compound 0.006325 µM
  relative viability: 0.243
NCI-H2228; first compound 0.02 µM
  relative viability: 0.152
NCI-H1915; first compound 0.0002 µM
  relative viability: 0.905
NCI-H1915; first compound 0.000632 µM
  relative viability: 0.95
NCI-H1915; first compound 0.002 µM
  relative viability: 0.577
NCI-H1915; first compound 0.006325 µM
  relative viability: 0.147
NCI-H1915; first compound 0.02 µM
  relative viability: 0.116
NCI-H727; first compound 0.0002 µM
  relative viability: 0.795
NCI-H727; first compound 0.000632 µM
  relative viability: 0.855
NCI-H727; first compound 0.002 µM
  relative viability: 0.474
NCI-H727; first compound 0.006325 µM
  relative viability: 0.473
NCI-H727; first compound 0.02 µM
  relative viability: 0.483
HCC-827; first compound 0.0002 µM
  relative viability: 0.891
HCC-827; first compound 0.000632 µM
  relative viability: 0.962
HCC-827; first compound 0.002 µM
  relative viability: 1
HCC-827; first compound 0.006325 µM
  relative viability: 0.562
HCC-827; first compound 0.02 µM
  relative viability: 0.328
NCI-H1792; first compound 0.0002 µM
  relative viability: 0.951
NCI-H1792; first compound 0.000632 µM
  relative viability: 0.82
NCI-H1792; first compound 0.002 µM
  relative viability: 0.6
NCI-H1792; first compound 0.02 µM
  relative viability: 0.12
A-427; first compound 0.0002 µM
  relative viability: 0.949
A-427; first compound 0.000632 µM
  relative viability: 0.964
A-427; first compound 0.002 µM
  relative viability: 0.656
A-427; first compound 0.006325 µM
  relative viability: 0.275
A-427; first compound 0.02 µM
  relative viability: 0.141
CAL-12T; first compound 0.0002 µM
  relative viability: 0.822
CAL-12T; first compound 0.000632 µM
  relative viability: 0.404
CAL-12T; first compound 0.002 µM
  relative viability: 0.348
CAL-12T; first compound 0.006325 µM
  relative viability: 0.271
CAL-12T; first compound 0.02 µM
  relative viability: 0.148
NCI-H1755; first compound 0.0002 µM
  relative viability: 0.984
NCI-H1755; first compound 0.000632 µM
  relative viability: 0.743
NCI-H1755; first compound 0.002 µM
  relative viability: 0.45
NCI-H1755; first compound 0.006325 µM
  relative viability: 0.368
NCI-H1755; first compound 0.02 µM
  relative viability: 0.315
SW 1573; first compound 0.0002 µM
  relative viability: 1.05
SW 1573; first compound 0.000632 µM
  relative viability: 0.364
SW 1573; first compound 0.002 µM
  relative viability: 0.265
SW 1573; first compound 0.006325 µM
  relative viability: 0.195
SW 1573; first compound 0.02 µM
  relative viability: 0.201
NCI-H2009; first compound 0.0002 µM
  relative viability: 0.99
NCI-H2009; first compound 0.000632 µM
  relative viability: 1.01
NCI-H2009; first compound 0.002 µM
  relative viability: 0.914
NCI-H2009; first compound 0.006325 µM
  relative viability: 0.263
NCI-H2009; first compound 0.02 µM
  relative viability: 0.178
NCI-H23; first compound 0.0002 µM
  relative viability: 1.08
NCI-H23; first compound 0.000632 µM
  relative viability: 0.574
NCI-H23; first compound 0.002 µM
  relative viability: 0.399
NCI-H23; first compound 0.006325 µM
  relative viability: 0.169
NCI-H23; first compound 0.02 µM
  relative viability: 0.104

— the supplement of paper PMC10307832
